Measured values: patent US7985774B2, “Use of 3,5-seco-4-nor-cholestane derivatives for obtaining a cytoprotective drug” (Trophos, priority 2006, dated 2011)

Assays:
[1] = system: C57BL6 mice; experiment: In vivo model of myocardium infarction (coronary occlusion-reperfusion)
Description: The purpose of this experiment is to study in vivo the cardioprotective properties of the compounds, 3,5-seco-4-nor-cholestan-5-one oxime-3-ol and 3,5-seco-4-nor-cholestan-5-one oxime-3-N,N-dimethylglycine ester, in a murine coronary occlusion-reperfusion model.
The compounds to be tested are administered intravenously in mice, 5 minutes before reperfusion of the myocardium ischemiated beforehand. As controls, carriers of the compounds beta-cyclodextrin (hereafter called βCD) and water, respectively, are administered under the same conditions as for the compounds.
In order to determine the effect of the tested compounds, the size of the infarction is measured after 24 hour reperfusion.
6-8 week old male C57BL6 mice are anaesthetized with sodium pentobarbital (50 mg/kg i.p.) and are ventilated after intubation with an O2/CO2 (95%/5%) mixture throughout the experiment. The surface electrocardiogram (ECG) is recorded and viewed on an oscilloscope all along surgery. Under strict asepsis conditions, the jugular vein is catheterized for intravenous administration of the compounds. A left lateral thoracotomy is performed and after pericardiotomy, a major branch of the left coronary artery is localized in the latero-posterior region of the left ventricle. A prolene no. 8 suture is positioned around this artery so as to form a mobile loop for making a temporary coronary occlusion.
All the mice were subject to a 30 minute temporary coronary occlusion. Ischemia of the myocardium region is confirmed by cyanosis of the myocardium surface and a deviation of the ST segment of the electrocardiogram.
Each of the compounds (treated group, n=10) or its solvent (control group, n=10) was administered as a bolus intravenously, 5 min before lifting the 30 minutes of coronary occlusion.
3,5-seco-4-nor-cholestan-5-one oxime-3-ol, dissolved beforehand to a final concentration of 0.46 mg/ml in a 30% βCD solution in phosphate buffer prepared by saturation followed by centrifugation, is administered at a dosage of 1 mg/kg.
3,5-seco-4-nor-cholestan-5-one oxime-3-N,N-dimethylglycine ester, dissolved beforehand to a final concentration of 1.56 mg/ml in sterile water by stirring and sonication, is administered at a dosage of 3.9 mg/kg.
The same volume of carrier is administered in the corresponding control groups.
Twenty four hours after the end of coronary occlusion, the mice are re-anaesthetized with sodium pentobarbital (50 mg/kg i.p.) and heparin is administered intravenously (Choay© heparin 1,000 IU/kg). A ligature of the coronary artery is achieved at the same location having been subject to the first occlusion 24 h previously. The mice are then euthanized with a lethal saturated dose of potassium chloride and their heart is rapidly excised and then mounted through the aorta artery on a retrograde perfusion system of the Langendorff type.
A 5% Evans blue solution is perfused retrogradely so that the healthy myocardium is colored in blue; the area made ischemic during the coronary occlusion, or <<area of risk AR>> remaining uncolored by default.
The left ventricle is then cut out into 5 slices with equal thicknesses (1 mm) by means of a slicer specially designed for hearts of mice (Les Isolants de Paris, Palaiseau), which are then weighed.
These slices are incubated in a 1% triphenyltetrazolium chloride solution (TTC, Sigma, Poole, UK) at pH 7.4 for 20 min at 37° C. and then set in 4% formol. TTC has the property of coloring the non-infarcted myocardium in red, and so showing the infarcted areas in white. Each heart slice is placed under a stereo microscope for taking a high definition digital photograph.
Quantification of infarction and the area of risk is carried out by planimetry (Scion Image, Scion, Frederick Md., USA) and referred to the weight of each slice.
The area of risk (non-blue area) is expressed as a percentage of the weight of the left ventricle. The infarction sizes are expressed as a percentage of the weight of the area of risk. […]

[2] = system: caspase-3; experiment: Caspase-3 activity (apoptosis) after doxorubicin; assay type: cell-based, rabbit; conditions: 8 hrs after exposure, control 19±9
Description: Isolated ventricular cells are obtained from hearts of male New Zealand rabbits as described in A. d'Anglemont de Tassigny et al., Fund. Clin. Pharmacol, 18: 531-38, 2004. Briefly, the rabbits (2.0-2.5 kg) are anaesthetized with a pentobarbital solution (50 mg/kg) and they then receive heparin (200 IU/kg). The hearts are excised and immediately perfused, for 10-15 minutes by means of a Langendorff apparatus without recirculation with an oxygenated tyrode (calcium-free) isotonic solution (95%, 2-5% CO2) (in mM: NaCl 135, KCl 5.4, Na2PO4 0.33, MgCl2 1.0, HEPES 10, pH adjusted to 7.4 with 1N NaOH at 37° C., 280-300 mOsmol/kgH2O). Next, all the hearts are perfused for 3 minutes in the “recirculation” mode with the same calcium-free Tyrode solution (coronary flow rate, 10-15 mL/min) added with 1 mg/mL of type II collagenase and 0.28 mg/mL of XIV type protease. Finally, all the hearts are perfused in a mode without any recirculation with the same solution of Tyrode supplemented with 0.3 mM of CaCl2 for 10 min. The left ventricle is removed and cut into small pieces; cell dissociation is achieved by mild mechanical stirring. Extracellular calcium is added by increments every 15 minutes, in order to reach a physiological concentration of 1.0 mM. […]
Caspase-3 activity is used as a quantitative method for measuring apoptosis. […] The fluorogenic substrate for measuring caspase-3 activity (DEVD) is marked with the fluorochrome, 7-amino-4-methyl coumarine (AMC), which produces […] fluorescence detectable in UV light at 360/460 nm for 210 min. […]
Apoptosis is induced in isolated cardiomyocytes by 3-8 hour exposure to 1 μM of doxorubicin added into an isotonic solution containing (in mM) NaCl 110, KCl 5.4, Na2PO4 0.33, NaHCO3 25, glucose 5, MgCl2 0.8, CaCl2 1, pH adjusted to 7.4. […] The contractility of cardiomyocytes was measured every hour during the 8 hrs of exposure to doxorubicin. […]

[3] = 1 mg/kg i.v. bolus in βCD 5 min before reperfusion, 30 min occlusion, 24 h reperfusion, mean±SEM

## CC(C)CCC[C@@H](C)[C@H]1CC[C@H]2[C@@H]3CC/C(=N\O)[C@](C)(CCCO)[C@H]3CC[C@]12C [3,5-seco-4-nor-cholestan-5-one oxime-3-ol]
[1]; [3]
  Area of risk (percentage of the weight of the left ventricle): 9 +/− 4%
  Infarction size (percentage of the weight of the area of risk): 21 +/− 7%
[1]; 1 mg/kg i.v., versus carrier (βCD)
  Infarction size reduction: 36.4%
[2]; doxorubicin 1 μM + compound 0.1 μM
  caspase-3 activity: 27 ± 20 fmol/min
[2]; doxorubicin 1 μM + compound 0.3 μM
  caspase-3 activity: 15 ± 7 fmol/min
